Read-outs that look alike come from different tables or passages of the source. Non-standard residues stand in square brackets, D forms with d. Residues, ends and D or L forms follow the SMILES beside them. pS = N[C@@H](COP(=O)(O)O)C(=O)O
Experiments:
[1] = target: T1, SNX27 PDZ (Homo sapiens, UniProt Q96L92); assay: FP displacement assay, SNX27 PDZ (MBP-tagged); assay type: binding; conditions: for Kd: MBP-tagged domain, probe FITC-SYT16 5 nM, 50 mM sodium phosphate pH 7.4, room temperature, at least three technical replicates, read-out: KD values ± SEM
T1 construct: SNX27_PDZ__Q96L92_40_141; made in house; host or cells: Escherichia coli BL21-Gold(DE3)
Description: For FP, ITC and crystallisation, the tag was removed with the appropriate protease either on beads (0.1 mg/ml thrombin (Cytiva) in PBS, 1 mM dithiothreitol (DTT)) or by dialysis in cleavage buffer (Human Rhinovirus (HRV) 3C protease: 50 mM Tris–HCl pH 7.4, 150 mM NaCl, 1 mM β‐mercaptoethanol), both procedures were overnight. In case of HRV protease cleavage, the tag was separated from the target protein domain by reverse ion metal affinity chromatography using Ni^2+ beads for purification, whereas thrombin was removed using a benzamidine column (Cytiva). Affinity measurements for SNX27 PDZ were performed on the MBP‐tagged construct, as well as PIN1 WW domain on the GST‐tagged construct. For FP and ITC, proteins were dialysed in 50 mM sodium phosphate buffer pH 7.4, 1 mM DTT. For crystallisation of the NTD of clathrin, the protein was further purified by a S200 Sepharose column (Cytiva) using 20 mM Tris–HCl pH 7.4, 150 mM NaCl and 1 mM DTT.
(§1) FP experiments were performed as described previously (Kliche et al, [2021]). Shortly, in order to monitor the binding event, FITC‐labelled peptides were used (excitation 495 nm, emission: 535 nm) and the FP signal was recorded in mP on a SpectraMax iD5 Multi‐Mode Microplate Reader (Molecular Devices) by measuring the emitted light in two angels. The measurements were performed at room temperature and prepared in nonbinding black half area 96‐well microplates (Corning®; 50 μl/well). For measuring direct binding, that is saturation curves, a 1:1 dilution series of protein domain (25 μl/well) was generated in 50 mM sodium phosphate buffer pH 7.4 and the measurement performed with 5 nM FITC‐labelled peptide (25 μl/well). The buffer‐corrected values were subsequently plotted with PRISM and fitted to the quadratic equation (Gianni et al, [2005]).
(§2) The 1:1 dilution series in this experiment was performed with the unlabelled peptide in 50 mM sodium phosphate buffer pH 7.4, so that each well‐contained unlabelled peptide (25 μl) at a certain concentration and pre‐formed complex (25 μl). The KD values of this indirectly monitored binding event were calculated as described previously (Nikolovska‐Coleska et al, [2004]). All measurements were at least in technical triplicates as well as biological duplicates when indicated. An amplitude shift between repeat measurements in the displacement experiments was occasionally observed due to variations in the protein preparations. If that was the case, the “active” protein concentration was back‐calculated according to the quadratic equation from the saturation curves performed in parallel. By comparing the active protein concentrations in the complex between different protein preparations, the amplitude was normalised.

[2] = target: T2, GGA1 VHS (Homo sapiens, UniProt Q9UJY5); assay: FP displacement assay, GGA1 VHS; assay type: binding
T2 construct: GGA1_VHS__Q9UJY5_1_157; GST (cleaved yes); made in house; host or cells: Escherichia coli BL21-Gold(DE3)
T2 sequence (Q9UJY5 1-157): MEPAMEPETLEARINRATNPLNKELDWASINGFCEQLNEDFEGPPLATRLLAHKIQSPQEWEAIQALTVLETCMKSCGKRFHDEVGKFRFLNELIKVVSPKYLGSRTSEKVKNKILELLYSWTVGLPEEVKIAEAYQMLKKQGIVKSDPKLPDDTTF
Description: as §1, §2

SMILES	Kd [1] [µM]	other results
CC(=O)N[C@@H](CC(N)=O)C(=O)N[C@@H](CC(C)C)C(=O)N[C@@H](CC(C)C)C(=O)N[C@@H](CC(C)C)C(=O)N[C@@H](CCC(=O)O)C(=O)N[C@@H](CCCNC(=N)N)C(=O)N[C@@H](CC(=O)O)C(=O)N[C@H](C(=O)N[C@@H](CO)C(=O)N[C@@H](Cc1ccccc1)C(=O)N[C@H](C(=O)N[C@H](C(=O)N[C@@H](C)C(=O)N1CCC[C@H]1C(=O)N[C@@H](CC(=O)O)C(=O)N[C@@H](Cc1ccc(O)cc1)C(N)=O)C(C)C)[C@@H](C)O)[C@@H](C)O [CDC25C30–44 wt] (Ac-NLLLERDTSFTVAPDY-NH2)	111 ± 17	
CC(=O)N[C@@H](CCC(=O)O)C(=O)N[C@H](C(=O)N[C@@H](Cc1ccc(O)cc1)C(=O)N[C@@H](Cc1ccc(O)cc1)C(=O)N[C@@H](CC(C)C)C(=O)N[C@@H](CO)C(=O)N[C@@H](CC(=O)O)C(=O)N[C@@H](CO)C(=O)N1CCC[C@H]1C(=O)N[C@@H](CC(C)C)C(=O)N[C@@H](CC(C)C)C(=O)NCC(=O)N1CCC[C@H]1C(=O)N1CCC[C@H]1C(=O)N[C@H](C(=O)NCC(N)=O)C(C)C)[C@@H](C)O [GTSE1_145–160 wt] (Ac-ETYYLSDSPLLGPPVG-NH2)		Kd ([2]; FP displacement, probe FITC-IGF2R 5 nM, 50 mM sodium phosphate pH 7.4, room temperature, at least three technical replicates, read-out: KD values ± SEM): 96 ± 8 µM
CC(=O)N[C@@H](CC(=O)O)C(=O)N[C@@H](CC(C)C)C(=O)N[C@@H](CC(C)C)C(=O)N[C@H](C(=O)N[C@@H](CO)C(=O)N1CCC[C@H]1C(=O)N[C@@H](CC(=O)O)C(=O)N[C@H](C(=O)NCC(=O)N[C@@H](CC(C)C)C(=O)N[C@@H](CC(C)C)C(=O)N[C@@H](CCCCN)C(=O)N[C@@H](CC(C)C)C(=O)N[C@@H](C)C(=O)N[C@@H](CO)C(=O)N[C@@H](Cc1ccc(O)cc1)C(N)=O)C(C)C)[C@@H](C)O [JUN59–73 wt] (Ac-DLLTSPDVGLLKLASY-NH2)		Kd [2]: 470 ± 50 µM
CSCC[C@H](NC(=O)CNC(C)=O)C(=O)N[C@H](C(=O)N[C@@H](CO)C(=O)N[C@@H](CO)C(=O)N[C@H](C(=O)N[C@@H](CO)C(=O)N[C@@H](Cc1ccccc1)C(=O)N[C@@H](CC(N)=O)C(=O)NCC(=O)NCC(=O)N[C@@H](Cc1ccc(O)cc1)C(N)=O)[C@@H](C)O)C(C)C [DAXX606–616 wt] (Ac-GMVSSTSFNGGY-NH2)	300 ± 125	
CSCC[C@H](NC(=O)CNC(C)=O)C(=O)N[C@H](C(=O)N[C@@H](CO)C(=O)N[C@@H](COP(=O)(O)O)C(=O)N[C@H](C(=O)N[C@@H](CO)C(=O)N[C@@H](Cc1ccccc1)C(=O)N[C@@H](CC(N)=O)C(=O)NCC(=O)NCC(=O)N[C@@H](Cc1ccc(O)cc1)C(N)=O)[C@@H](C)O)C(C)C [DAXX606–616 pS] (Ac-GMVS[pS]TSFNGGY-NH2)	96 ± 5	IC50 ([1]; Fig 4B, SNX27 PDZ, technical triplicates, read-out: IC50 values of displacement curves, with SEM): 427 ± 39 µM
